The values that follow come from US20220334101A1, “MODULATING EXTRACELLULAR MATRIX MOVEMENT” (Helmholtz Zentrum Muenchen - Deutsches Forschungszentrum …, priority 2019, published 2022).

Entries after “also recorded” stand apart in the source; their conditions may differ. Where a SMILES comes first, the peptide text is derived from it.

Series [1] relates to liver tissue. The series is described as follows: In vivo effects on ECM movement in the presence of modulators (FIG. 20). To be noted: FIG. 20, modulator administered after injury. As for the experimental part: An injury within liver tissue was generated, a potential modulator was administered and ECM movement was monitored.
Series [2] concerns peritoneum. The series is described as follows: ECM (matrix) movement into peritoneal wounds after laparotomy injury, NHS-FITC matrix labelling. Type of series: in vivo, mouse.
The subject of series [3] is liver. The series can be described thus: ECM (matrix) movement into liver wounds after electroporation injury, NHS-FITC matrix labelling. It counts as in vivo, mouse.
Series [4] concerns pleural fluid matrix movement into lungs. The series can be described thus: Bleomycin-induced lung fibrosis model with pleural matrix fate tracing. Type of series: in vivo, mouse. The method, then:
The inventors generated a labelling solution by mixing 5 μl NHS-ester (25 mg/ml) with 5 μl of 100 mM pH 9.0 sodium bicarbonate buffer, combining with 40 μl PBS to a total volume of 50 μl. The labelling solution was applied intra pleural under isoflurane anaesthesia by using a 30G cannula. The oropharyngeal administration of bleomycin for the induction of pulmonary fibrosis was carried out in an antagonistic anesthesia in C57BL/6J mice of both sexes (6-8 weeks age). After the toe-pinch reflex was absent, the mouse was placed on the incisors of the upper jaw and thus kept in an upright position. The tongue was carefully fixed and held to the side with tweezers while the nose of the animal is covered with tweezers. By keeping the nose closed, the mouse was forced to breathe through the mouth. With the help of a pipette, bleomycin was dissolved in a dosage of 2 units/kg KGW in 80 μl PBS carefully into the throat. As soon as the animal has inhaled the solution, it was tansferred to a Hot plate (duration approx. 30 to 60 seconds). After antagonization animals were housed for 14 days. Nintedanib was added 1 hour before bleomycin installation and every other day intra peritoneal 10 μM. To directly answer if Nintedanib's anti-fibrotic actions are mediated through its effects on fluid matrix movements, the Inventors labeled fluid matrix reservoirs on lung surfaces as before, induced lung inflammation and fibrosis with Bleomycin, and followed these mice with daily injections of Nintedanib (FIG. 44B). […] Both lung alveoli and major blood vessels lacked accretions of labeled fibers.

The subject of series [5] is fascia fibroblasts. The series can be described thus: Fascia invasion assay (ex vivo fascia 3D Matrigel culture). It counts as cell-based, mouse.
Procedure: In order to observe the dynamic changes of fascia fibroblasts, the inventors isolated dorsal skin from P4 to P6 neonates of En1^Cre; R26^mTmG mouse lines. Cre positive neonates from this double transgenic mouse line were detected by green fluorescent signal in dorsal skin with a Leica M205 FA stereo microscope. Matrigel was prepared by diluting the stock aliquots with DMEM/F12 medium to a concentration of 6 mg/ml. Then 150 μl prepared gel was added in the center of a 35 mm cell culture dish (Ibidi). 4 mm biopsies were made from the dorsal skin and fascia tissues were then isolated from the dorsal skin tissues. Isolated fascia tissues were then embedded into the gel and were allowed to be solidified for one hour at 37° C. Then the tissue-gel system was maintained in DMEM/F12 medium (Life Technologies) supplemented with 10% FBS (Life Technologies), 1% non-essential amino acid (Thermo Fisher), 1% Glutamax (Thermo Fisher), 1% penicillin and streptomycin (Thermo Fisher) in a 37° C. incubator supplied with 95% O2 and 5% CO2. Medium was changed every other day until day 4 when tissues were collected and fixed. For fixation with Matrigel system, tissues were fixed in 2% paraformaldehyde (VWR) with 0.1% glutaraldehyde (Sigma) for 1 hour and then washed three times with phosphate buffered saline (PBS, Life Technologies) and stored in PBS at 4° C.
Fascia tissues were recorded everyday by a brightfield microscope to check the invasion and contraction state of the tissues. The invasion index was calculated with the following formula: Invasion index=(SD4−SD0)/SD0
SD4 and SD0 represent tissue size (including the migrated area) on Day 4 and Day 0, respectively. The contraction index was calculated with the following formula: Contraction index=(TD0−TD4)/TD0
TD4 and TD0 represent original tissue size (excluding the migrated area) on Day 4 and Day 0 respectively.
The Inventors isolated fascia from back-skin of En1^Cre; R26^mTmG double-transgenic mice, separately incubated whole fascia explants with 26 small molecules, and measured the invasion index (Si)=(SD4−SD0)/SD0 (see Methods) as a proxy measure of sprouting and reticulation.
Where [6] appears, read: inhibitors 10 μM i.p. 2 hours before surgery, organs harvested after 24 h, FITC in wound lysates.

`CC(=N)NCc1cccc(CN)c1` [Prestw 1400W, 1400W]: the “effect on ECM movement towards the site of injury (phenotype)” value (“effect on ECM movement towards the site” below) in series [1] is on record as “anti-fibrotic phenotypes”; in series [1] (listed as W1400), “inhibit ECM movement”.

Regarding `O=c1c(O)c(-c2ccc(O)c(O)c2)oc2cc(O)cc(O)c12` [Quercetin], the “ECM (matrix) movement, peritoneum” value in series [2] (setting [6]) is on record as “decreased”. For the same compound, the “ECM (matrix) movement, liver” value in series [3] (setting [6]) was “decreased”.

Consider `N#CCCN` [BAPN], for which the “ECM (matrix) movement, peritoneum” value in series [2] (mouse, in vivo, ip) is on record as “increased”. For the same compound, in series [3] (mouse, in vivo, ip), the “ECM (matrix) movement, liver” value is on record as “increased”.

As for `N#CC(=C(O)c1ccc(Cl)cc1Cl)c1nc2cc(Cl)ccc2c(=O)[nH]1` [Ciliobrevin D], the “ECM (matrix) movement, peritoneum” value in series [2] (setting [6]) is “decreased”. Further, the “organ specificity of the effect on matrix currents” value in series [2] (livers and peritoneas compared) is recorded as “effected matrix currents of only one organ”.

As to `CN(C(=O)c1cc2ccccc2cc1C(=O)C(c1cccc2ccccc12)P(=O)(O)O)C1CCN(C(=O)c2ccccc2)CC1` (centres unmarked) [Cath-G inhibitor], the “effect on ECM movement towards the site” value in series [1] is given as “anti-fibrotic phenotypes”; in series [1] (listed as cathepsin G inhibitors), “inhibit ECM movement”. Also, the “ECM (matrix) movement, liver” value in series [3] (setting [6]) was “decreased”.

For `CNC(=O)[C@H](Cc1c[nH]c2ccccc12)NC(=O)[C@@H](CC(=O)NO)CC(C)C` [GM6001], in series [2] (setting [6]), the “ECM (matrix) movement, peritoneum” value is “decreased”. The “effect on ECM movement towards the site” value in series [1] is listed as “anti-fibrotic phenotypes; also recorded: inhibit ECM movement”. In addition, in series [3] (livers and peritoneas), the “potency among the protease inhibitors on matrix currents” value is recorded as “most potent”. Besides, in series [3] (mouse, in vivo, ip), the “ECM (matrix) movement, liver” value is recorded as “decreased”.

As for `COC(=O)c1ccc2c(c1)NC(=O)/C2=C(\Nc1ccc(N(C)C(=O)CN2CCN(C)CC2)cc1)c1ccccc1` [Nintedanib], the “inward translocations (movements) of fluid matrix” value in series [4] (Nintedanib 10 μM i.p. 1 hour before bleomycin and repeatedly, 14 days) is on record as “completely abrogated”. Besides, in series [4] (two weeks after bleomycin), the “activation of lung interstitial fibroblasts into myofibroblasts” value is given as “refrained from activating into pathologic YAP/TAZ-positive myofibroblasts”; the “matrix on lung surfaces (pleural matrix pools): structures and fluorescence intensity” value is “maintained the same structures and fluorescence intensity; also recorded: rescues pleural matrix pools”. Further, the “fibrotic developments along lung airways and bronchioles” value in series [4] (two weeks after bleomycin, histology) was “very minimal signs of fibrotic developments”.

Take `CCc1cc(C(C)=O)c(O)cc1OCCCCCC(C)(C)c1nn[nH]n1` [LY255283]: the “effect on ECM movement towards the site” value in series [1] is recorded as “anti-fibrotic phenotypes; also recorded: inhibit ECM movement”.

As to `O=CN1CC/C(=C\c2ccc3c(c2)OCO3)C1=O` [KNK437], the “ECM (matrix) movement, peritoneum” value in series [2] (setting [6]) is listed as “decreased”. Also, the “ECM (matrix) movement, liver” value in series [3] (setting [6]) is given as “decreased”.

In the case of `O=C(O)C1(c2ccc3c(c2)OC[C@H](Cc2ccc(-c4ccccc4)cc2)[C@H]3O)CCCC1` [CP-105696], the “effect on ECM movement towards the site” value in series [1] was “anti-fibrotic phenotype”.

With `COC(=O)Nc1nc2ccc(Sc3ccccc3)cc2[nH]1` [Fenbendazole], the “toxic effects to fascia tissues” value in series [5] is “toxic effects”.

As to `COC(=O)CCC(=O)N[C@@H](C)C(=O)N[C@@H](C)C(=O)N1CCC[C@H]1C(=O)N[C@@H](C)C(=O)CCl` [elastase inhibitor II] (HELM PEPTIDE1{[COC(=O)CCC(=O)[*:2]].A.A.P.A.[ClC[*:1]]}$$$$V2.0), in series [2] (setting [6]), the “ECM (matrix) movement, peritoneum” value was “increased”. Also, the “ECM (matrix) movement, liver” value in series [3] (setting [6]) is given as “increased”.

As for `CC(C)C[C@H](NC(=O)N[C@H](C(=O)N[C@@H](CCC(N)=O)C(=O)N[C@@H](C)C=O)[C@@H]1CCNC(=N)N1)C(=O)O` [Elastatinal], the “ECM (matrix) movement, peritoneum” value in series [2] (setting [6]) is reported as “increased”. Moreover, the “effect on ECM movement towards the site” value is given as “pro-fibrotic phenotype” in series [1] (listed as Elastial) and “promote ECM movement” in series [1] (listed as elastial). Further, the “ECM (matrix) movement, liver” value in series [3] (setting [6]) is “increased”.

For the compound `CC(C)C[C@H](NC(=O)[C@@H](O)[C@H](N)Cc1ccccc1)C(=O)O` [BESTATIN], in series [2] (setting [6]), the “ECM (matrix) movement, peritoneum” value is recorded as “decreased”.

With `COC(=O)[C@@H](N)CCCNC(=N)N[N+](=O)[O-]` [L-Name], the “effect on ECM movement towards the site” value in series [1] is reported as “anti-fibrotic phenotype”.
